Results published in patent US10550105B2 (Ribon Therapeutics Inc., priority 2018, dated 2020).

Each compound was assayed against PARP7 (Homo sapiens (Human), UniProt Q7Z3E1) (assay: Enzymatic assay for inhibition of PARP7: TR-FRET displacement of biotinylated Probe A from the TIPARP active site). Details: Table A-1.
Type: binding
How it was run: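 TR-FRET, ex 320 nm / em 615 and 665 nm. Signal ratio reflects complex formation.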

Sequence of PARP7 (Q7Z3E1 whole entry): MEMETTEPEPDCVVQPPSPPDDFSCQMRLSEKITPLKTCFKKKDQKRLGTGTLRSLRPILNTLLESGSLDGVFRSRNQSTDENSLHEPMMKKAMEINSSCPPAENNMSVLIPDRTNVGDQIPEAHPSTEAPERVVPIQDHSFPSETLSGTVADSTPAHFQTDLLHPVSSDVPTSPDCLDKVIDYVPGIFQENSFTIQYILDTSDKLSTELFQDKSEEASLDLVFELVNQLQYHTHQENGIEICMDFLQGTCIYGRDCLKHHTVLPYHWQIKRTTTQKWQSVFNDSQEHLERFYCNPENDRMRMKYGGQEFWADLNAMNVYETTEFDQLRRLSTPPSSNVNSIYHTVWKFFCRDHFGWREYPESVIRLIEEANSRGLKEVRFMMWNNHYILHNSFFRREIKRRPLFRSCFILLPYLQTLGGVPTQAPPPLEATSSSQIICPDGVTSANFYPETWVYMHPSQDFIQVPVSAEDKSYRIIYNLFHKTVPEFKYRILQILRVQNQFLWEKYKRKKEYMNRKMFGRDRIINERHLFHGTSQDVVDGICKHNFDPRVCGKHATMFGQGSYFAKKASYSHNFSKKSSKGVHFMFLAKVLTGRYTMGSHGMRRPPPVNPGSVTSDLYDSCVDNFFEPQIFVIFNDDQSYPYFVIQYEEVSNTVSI

SMILES	IC50 [nM]
O=C(c1cccc(OCC2c3ccccc3CN2c2cn[nH]c(=O)c2C(F)(F)F)c1)N1CCn2c(nnc2C(F)(F)F)C1 (stereo not drawn) [Example 367, 4-(Trifluoromethyl)-5-(1-((3-(3-(trifluoromethyl)-5,6,7,8-tetrahydro-[1,2,4]triazolo[4,3-a]pyrazine-7-carbonyl)phenoxy)methyl)isoindolin-2-yl)pyridazin-3(2H)-one]	< 100
C[C@@H](CN(C)CCC(=O)N1CCN(c2ccc(C#N)cn2)CC1)Oc1cn[nH]c(=O)c1C(F)(F)F [Example 645, (S)-6-(4-(3-(Methyl(2-((6-oxo-5-(trifluoromethyl)-1,6-dihydropyridazin-4-yl)oxy)propyl)amino)propanoyl)piperazin-1-yl)nicotinonitrile]	< 100
N#Cc1ccc(N2CCN(C(=O)CCOC[C@@H]3c4ccccc4CN3c3cn[nH]c(=O)c3Cl)CC2)nc1 [Example 413, (S)-6-(4-(3-((2-(5-Chloro-6-oxo-1,6-dihydropyridazin-4-yl)isoindolin-1-yl)methoxy)propanoyl)piperazin-1-yl)nicotinonitrile]	< 100
C[C@@H]1CN(c2ncc(C(F)(F)F)cn2)CCN1C(=O)CCOC[C@H](C)Nc1cn[nH]c(=O)c1C(F)(F)F (single isomer, unassigned) [Example 619 Isomer B]	< 100
N#Cc1cnc(N2CCN(C(=O)c3cccc(OC[C@H]4c5ccccc5CN4c4cn[nH]c(=O)c4C(F)(F)F)c3)CC2)nc1 [Example 364, (R)-2-(4-(3-((2-(6-oxo-5-(trifluoromethyl)-1,6-dihydropyridazin-4-yl)isoindolin-1-yl)methoxy)benzoyl)piperazin-1-yl)pyrimidine-5-carbonitrile]	≥ 1000
N#Cc1ccc(N2CCN(C(=O)CCOCCOc3cn[nH]c(=O)c3Br)CC2)nc1 [Example 555, 6-[4-(3-[2-[(5-Bromo-6-oxo-1,6-dihydropyridazin-4-yl)oxy]ethoxy]propanoyl)piperazin-1-yl]pyridine-3-carbonitrile]	< 100
CC(C)c1c(N2Cc3ccc(O[C@H]4CCCNC4)cc3C2)cn[nH]c1=O [Example 293, (S)-4-Isopropyl-5-(5-(piperidin-3-yloxy)isoindolin-2-yl)pyridazin-3(2H)-one]	≥ 1000
CC(O)c1cccc2c1CN(c1cn[nH]c(=O)c1C(F)(F)F)C2 (stereo not drawn) [Example 278, 5-(4-(1-Hydroxyethyl)isoindolin-2-yl)-4-(trifluoromethyl)pyridazin-3(2H)-one]	100 to 1000
O=C(C[C@@H]1CC[C@@H]([C@@H]2CCCN2c2cn[nH]c(=O)c2C(F)(F)F)O1)N1CCN(c2ccc(Cl)cn2)CC1 [Example 148A, 5-[(2S)-2-[(2S,5S)-5-[2-[4-(5-chloropyridin-2-yl)piperazin-1-yl]-2-oxoethyl]oxolan-2-yl]pyrrolidin-1-yl]-4-(trifluoromethyl)-2,3-dihydropyridazin-3-one]	< 100
O=c1[nH]ncc(N2Cc3cccc(OC4CCNC4)c3C2)c1Cl (stereo not drawn) [Example 242, 4-Chloro-5-(4-(pyrrolidin-3-yloxy)isoindolin-2-yl)pyridazin-3(2H)-one]	100 to 1000
O=c1[nH]ncc(N2Cc3ccncc3C2)c1C(F)(F)F [Example 280, 5-(1,3-Dihydro-2H-pyrrolo[3,4-c]pyridin-2-yl)-4-(trifluoromethyl)pyridazin-3(2H)-one]	100 to 1000
N#Cc1cccnc1N1CCN(C(=O)c2cccc(OCC3c4ccccc4CN3c3cn[nH]c(=O)c3C(F)(F)F)c2)CC1 (stereo not drawn) [Example 358, 2-(4-(3-((2-(6-Oxo-5-(trifluoromethyl)-1,6-dihydropyridazin-4-yl)isoindolin-1-yl)methoxy)benzoyl)piperazin-1-yl)nicotinonitrile]	< 100
C[C@@H](COCCC(=O)N1CCN(c2ncc(C(F)(F)F)s2)CC1)Oc1cn[nH]c(=O)c1C(F)(F)F [Example 708, (S)-5-((1-(3-Oxo-3-(4-(5-(trifluoromethyl)thiazol-2-yl)piperazin-1-yl)propoxy)propan-2-yl)oxy)-4-(trifluoromethyl)pyridazin-3(2H)-one]	< 100
COc1cc2c(cn1)CN(c1cn[nH]c(=O)c1C(F)(F)F)C2 [Example 11, 5-[6-methoxy-1H,2H,3H-pyrrolo[3,4-c]pyridin-2-yl]-4-(trifluoromethyl)-2,3-dihydropyridazin-3-one]	< 100
N#Cc1ccc(N2CCN(C(=O)N3CC[C@H](OC[C@@H]4CCCN4c4cn[nH]c(=O)c4C(F)(F)F)C3)CC2)nc1 [Example 129B, 6-[4-[(3S)-3-[[(2S)-1-[6-oxo-5-(trifluoromethyl)-1,6-dihydropyridazin-4-yl]pyrrolidin-2-yl]methoxy]pyrrolidine-1-carbonyl]piperazin-1-yl]pyridine-3-carbonitrile]	< 100
CNCCOc1cccc2c1CN(c1cn[nH]c(=O)c1C(F)(F)F)C2 [Example 217, 5-(4-(2-(Methylamino)ethoxy)isoindolin-2-yl)-4-(trifluoromethyl)pyridazin-3(2H)-one]	100 to 1000

Further lines, results first:

IC50 [nM]	SMILES
< 100	O=c1[nH]ncc(N2Cc3ccccc3C2)c1C(F)(F)F [Example 160, 5-(Isoindolin-2-yl)-4-(trifluoromethyl)pyridazin-3(2H)-one]
100 to 1000	N#Cc1cnc(N2CCN(C(=O)c3cccc(OC[C@H]4c5ccccc5CN4c4cn[nH]c(=O)c4C(F)(F)F)c3)CC2)cn1 [Example 369, (R)-5-(4-(3-((2-(6-Oxo-5-(trifluoromethyl)-1,6-dihydropyridazin-4-yl)isoindohn-1-yl)methoxy)benzoyl)piperazin-1-yl)pyrazine-2-carbonitrile]
≥ 1000	COC[C@H](CO[C@H](C)CC(=O)N1CCN(c2ccc(C#N)cn2)CC1)Oc1cn[nH]c(=O)c1C(F)(F)F (single isomer, unassigned) [Example 571 Isomer C]
< 100	C[C@H]1C[C@@H](COc2cccc(C(=O)N3CCN(c4ccc(C#N)cn4)CC3)c2)N(c2cn[nH]c(=O)c2C(F)(F)F)C1 [Example 70, 6-[4-[(3-[[(2S,4S)-4-methyl-1-[6-oxo-5-(trifluoromethyl)-1,6-dihydropyridazin-4-yl]pyrrolidin-2-yl]methoxy]phenyl)carbonyl]piperazin-1-yl]pyridine-3-carbonitrile]
< 100	N#Cc1ccc(N2CCN(C(=O)C/C=C\OC[C@@H]3CCCN3c3cn[nH]c(=O)c3C(F)(F)F)CC2)nc1 (single isomer, unassigned) [Example 96 Isomer A]
≥ 1000	CN1CCN(CCOc2cccc3c2CN(c2cn[nH]c(=O)c2Cl)C3)CC1 [Example 255, 4-Chloro-5-(4-(2-(4-methylpiperazin-1-yl)ethoxy)isoindolin-2-yl)pyridazin-3(2H)-one]
100 to 1000	O=c1[nH]ncc(N2Cc3cc(OCCN4CCOCC4)cnc3C2)c1C(F)(F)F [Example 325, 5-(3-(2-Morpholinoethoxy)-5,7-dihydro-6H-pyrrolo[3,4-b]pyridin-6-yl)-4-(trifluoromethyl)pyridazin-3(2H)-one]
< 100	Cc1ccc(N2CCN(C(=O)CCOC[C@H](C)Oc3cn[nH]c(=O)c3C(F)(F)F)CC2)nc1 [Example 682, (S)-5-((1-(3-(4-(5-Methylpyridin-2-yl)piperazin-1-yl)-3-oxopropoxy)propan-2-yl)oxy)-4-(trifluoromethyl)pyridazin-3(2H)-one]
< 100	Cc1cnc(N2CCN(C(=O)CCOC[C@H](C)Nc3cn[nH]c(=O)c3C(F)(F)F)CC2)nc1 [Example 670, (S)-5-((1-(3-(4-(5-Methylpyrimidin-2-yl)piperazin-1-yl)-3-oxopropoxy)propan-2-yl)amino)-4-(trifluoromethyl)pyridazin-3(2H)-one]
< 100	COc1cc(F)c2c(c1)CN(c1cn[nH]c(=O)c1C(F)(F)F)C2 [Example 273, 5-(4-Fluoro-6-methoxyisoindolin-2-yl)-4-(trifluoromethyl)pyridazin-3(2H)-one]
< 100	Nc1cccc2c1CN(c1cn[nH]c(=O)c1C(F)(F)F)C2 [Example 205, 5-(4-Aminoisoindolin-2-yl)-4-(trifluoromethyl)pyridazin-3(2H)-one]
< 100	N#Cc1ccc(N2CCN(C(=O)c3cncc(OC[C@@H]4c5ccccc5CN4c4cn[nH]c(=O)c4C(F)(F)F)c3)CC2)nc1 [Example 353, (S)-6-(4-(5-((2-(6-Oxo-5-(trifluoromethyl)-1,6-dihydropyridazin-4-yl)isoindolin-1-yl)methoxy)nicotinoyl)piperazin-1-yl)nicotinonitrile]
< 100	O=C(C[C@@H]1CC[C@H](COc2cn[nH]c(=O)c2C(F)(F)F)O1)N1CCN(c2ncc(C(F)(F)F)cn2)CC1 [Example 574 Isomer D, 5-(((2R,5S)-5-(2-Oxo-2-(4-(5-(trifluoromethyl)pyrimidin-2-yl)piperazin-1-yl)ethyl)-tetrahydrofuran-2-yl)methoxy)-4-(trifluoromethyl)pyridazin-3(2H)-one]
< 100	C[C@@H](COCCC(=O)N1CCN(c2ncc(Cl)s2)CC1)Nc1cn[nH]c(=O)c1C(F)(F)F [Example 721, (S)-5-((1-(3-(4-(5-Chlorothiazol-2-yl)piperazin-1-yl)-3-oxopropoxy)propan-2-yl)amino)-4-(trifluoromethyl)pyridazin-3(2H)-one]
100 to 1000	COC[C@@H](CO[C@@H](C)CC(=O)N1CCN(c2ccc(C#N)cn2)CC1)Oc1cn[nH]c(=O)c1C(F)(F)F (single isomer, unassigned) [Example 571 Isomer B]
100 to 1000	CN1CCN(C(=O)CCOC[C@@H]2c3ccccc3CN2c2cn[nH]c(=O)c2C(F)(F)F)CC1 [Example 421, (S)-5-(1-((3-(4-Methylpiperazin-1-yl)-3-oxopropoxy)methyl)isoindolin-2-yl)-4-(trifluoromethyl)pyridazin-3(2H)-one]
< 100	O=C(C[C@H]1CC[C@H]([C@@H]2CCCN2c2cn[nH]c(=O)c2C(F)(F)F)O1)N1CCN(c2ncc(Cl)cn2)CC1 [Example 147D, 5-[(2S)-2-[(2R,5R)-5-[2-[4-(5-chloropyrimidin-2-yl)piperazin-1-yl]-2-oxoethyl]oxolan-2-yl]pyrrolidin-1-yl]-4-(trifluoromethyl)-2,3-dihydropyridazin-3-one]
